Measurements from patent US20230346661A1, “Anhydrous Azelaic Acid Topical Formulations” (Baek Clinical Inc., priority 2020, published 2023).
One block for each compound: values may come before it.

How the values were obtained:
[1] = system: transepidermal water loss; conditions: in vivo; cited from earlier work
[2] = Solubility of optional additional components in non-aqueous solvents; type: physicochemical
Source text: Additional ingredients were chosen for their compatibility with (e.g., miscibility in) 1,3 propanediol, 1,2 propanediol, and 1,3 butanediol.

[3] = system: erythema (skin redness); conditions: concentrations of 0.2%; cited from earlier work
[4] = cited from earlier work
[5] = Maximum concentration of azelaic acid solubilized with heat in a given solvent without precipitation upon cooling; type: physicochemical; conditions: in dimethyl isosorbide, relative to the approximately 10 to 12% of the diols
Source text: In order to determine a desirable ratio of azelaic acid to urea for certain compositions of this disclosure, the maximum concentration for azelaic acid that can be solubilized is first determined, with heat exposure, in a given solvent without precipitation upon cooling.

[6] = system: melasma; conditions: cited from earlier work
[7] = Ability of polyol solvents to solubilize azelaic acid; type: physicochemical
Method: A series of experiments were performed to assess and optimize the components of the subject formulations.

solubility ([2]; in 1,3-propanediol): shows solubility
Compound: CC1(C)[C@@H](O[C@H]2O[C@H](C(=O)O)[C@@H](O)[C@H](O)[C@H]2O[C@@H]2O[C@H](C(=O)O)[C@@H](O)[C@H](O)[C@H]2O)CC[C@]2(C)[C@H]3C(=O)C=C4[C@@H]5C[C@@](C)(C(=O)O)CC[C@]5(C)CC[C@@]4(C)[C@]3(C)CC[C@@H]12 [glycyrrhizic acid]

solubility ([2]; at a concentration of 0.2% in 1,3 propanediol, 1,2 propanediol and 1,3 butanediol): soluble
Compound: madecassoside
ability to reduce erythema (skin redness) [3]: desirable ability to reduce erythema

More lines, now with the values behind:

Compound: CC(C)(CO)[C@@H](O)C(=O)NCCCO [Panthenol]
concentration at which inhibition of transepidermal water loss is apparent [1]: ≥ 1%

Compound: O=C(O)CCCCCCCC(=O)O [azelaic acid]
solubility in cosmetic oils ([4]; cosmetic oils): little or no solubility
stability of azelaic acid in alcohol ([4]; ethyl alcohol, normal temperatures): unstable
maximum azelaic acid in a water and azelaic acid solution ([4]; water): about 0.24 % by weight (w/w)
maximum concentration for azelaic acid that can be solubilized [5]: significantly lower
treatment differences in overall rating, reduction in lesion size and pigmentary intensity ([6]; 20% azelaic acid compared to 4% hydroquinone): no significant treatment differences
allergic sensitization or exogenous ochronosis ([6]; 20% azelaic acid): no allergic sensitization or exogenous ochronosis observed
good or excellent results in lightening melasma ([6]; 20% azelaic acid): 65%
ability to solubilize azelaic acid ([7]; solvent 1,2-hexanediol used alone): moderate
ability to solubilize azelaic acid ([7]; solvent 1,2-propanediol (propylene glycol)): moderate
ability to solubilize azelaic acid ([7]; solvent 1,3-butanediol (butylene glycol)): moderate
ability to solubilize azelaic acid ([7]; solvent 1,3-propanediol): moderate
ability to solubilize azelaic acid ([7]; solvent 1,5-pentanediol (pentylene glycol)): moderate
ability to solubilize azelaic acid ([7]; solvent dimethyl isosorbide): very limited
ability to solubilize azelaic acid ([7]; solvents glycerin and diglycerin): moderate and low

Compound: COc1cc(CC(C(C)=O)C(C)=O)ccc1O [Acetyl zingerone]
solubility ([2]; at 0.5-1% in 1,3 propanediol, 1,2 propanediol and 1,3 butanediol): readily soluble
